Results: PubChem BioAssay AID2060486 (Molecular Pharmacology Branch, DTP, NCI, 2025)

Test system: IGROV1 complex spheroids (HUVEC, MSC), viability % test/control
Test: Anticancer human tumor IGROV1 cell line growth inhibition [GQUAD];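 note: spheroids exposed to compounds for 7 days before readout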
Settings: for IC50: curve of first compound; for viability, T/C: stronger effect = lower value
Description: DNA G-quadruplex Stabilizer Agents in Combinations in Complex Spheroids
A high-throughput screen of multi-cell type tumor spheroids was designed to identify active combinations of DNA G-quadruplex stabilizer agents and targeted small molecules. Complex spheroids include a stromal component modeled by human endothelial cells (HUVEC) and fibroblasts modeled by human mesenchymal stem cells (MSCs). The concentration ranges selected for each drug and investigational agent were based upon clinically achievable concentrations if the clinical Cmax of the agent was known.
Compounds. The drugs and investigational agents: pidnarulex (CX-5461; NSC782164), APTO-253 (NSC789042), BRACO-19 (NSC847499), peposertib (NSC802822), ceralasertib (NSC780249), elimusertib (NSC800525), camonsertib (NSC841442), AZD-1390 (NSC803789), olaparib (NSC753686), talazoparib (NSC767125), ART-558 (NSC835418), sotorasib (NSC818433), MRTX-1133 (NSC836407), SN-38 (NSC673596), topotecan (NSC609699), etoposide (NSC141540), doxorubicin (NSC123127), gemcitabine (NSC613327), 5-fluorouracil (NSC19893), paclitaxel (NSC125973), vemurafenib (NSC761431), panobinostat (NSC761190), R-306465 (JNJ-16241199; NSC773264), adavosertib (NSC754352), TP-3654 (NSC805149), carboplatin (NSC241240), KSQ-4279 (NSC840948), and staurosporine (NSC755774) were obtained from the National Cancer Institute (NCI) Developmental Therapeutics Program Chemical Repository (34). The FDA-approved anticancer drug set is available from the NCI Developmental Therapeutics Program. […] The stock solutions were prepared in dimethyl sulfoxide (DMSO, Sigma-Aldrich, St. Louis, MO, cat. D2650) at 800-fold the tested concentration and stored at -70 degrees C prior to their use. All drugs and investigational agents were tested over a range starting from a high concentration at or near the clinical Cmax and decreasing in half-log increments. If the clinical Cmax for an agent had not been determined, the highest concentration tested was 10 microM.
2.3 Cell Culture. All cells were maintained in an incubator at 37 degrees C and 5% CO2 with 95% humidity. The PDC lines were cultured according to standard operating procedures established by the NCI PDMR. All PDCs were thawed and cultured in Matrigel-coated flasks prepared with a working solution of 1X Ham's F-12 nutrient mix, without supplementation (Invitrogen, cat. 11765054), 100 U/mL penicillin-streptomycin (Invitrogen, cat. 15140122), and 2.5% Matrigel (Corning Inc., cat. 354248) for the first three passages. The 857933-349-R-J2-PDC line was cultured in 6C/Colon 1B media, which includes advanced DMEM/F-12 (Thermo Fisher Scientific, cat. 12634028), 10 mM HEPES (Thermo Fisher Scientific, cat. 15630080), 1X GlutaMAX supplement (Thermo Fisher Scientific, cat. 35050061), 0.1 mg/mL primocin (InvivoGen, cat. ant-pm-2), 10% defined fetal bovine serum, heat inactivated (HyClone Laboratories Inc., cat. SH30070.03HI), 50% L-WRN conditioned media (ATCC, cat. CRL-3276), 1.25 mM N-Acetyl-L-cysteine (Sigma-Aldrich, cat. A9165), 10 mM nicotinamide (Sigma-Aldrich, cat. N0636), 1X B-27 supplement (Thermo Fisher Scientific, cat. 17504044), 1X N-2 supplement (Thermo Fisher Scientific, cat. 17502048), 10 microM Y-27632 dihydrochloride (Tocris Bioscience, cat. 1254), and 50 ng/mL human EGF recombinant protein (Thermo Fisher Scientific, cat. PHG0311). The 485176-168-R4-J1-PDC line was cultured in Panc media, which includes all 6C/Colon 1B media components plus 100 ng/mL human FGF-10 (Thermo Fisher Scientific, cat. 100-26), 500 nM SB-431542 (Selleckchem, cat. S1067), and gastrin (Tocris, cat. 3006).
[…]

[1] = second compound 0.0316 µM, first compound 0.0316 µM
[2] = second compound 0.0316 µM, first compound 0.316 µM
[3] = second compound 0.1 µM, first compound 0.0316 µM
[4] = second compound 0.1 µM, first compound 0.316 µM
[5] = second compound 0.316 µM, first compound 0.0316 µM
[6] = second compound 0.316 µM, first compound 0.316 µM
[7] = second compound 1 µM, first compound 0.0316 µM
[8] = second compound 1 µM, first compound 0.316 µM
[9] = second compound 3.16 µM, first compound 0.0316 µM
[10] = second compound 3.16 µM, first compound 0.316 µM
[11] = second compound 10 µM, first compound 0.0316 µM
[12] = second compound 10 µM, first compound 0.316 µM

## C=CC(=O)N1CCN(c2nc(=O)n(-c3c(C)ccnc3C(C)C)c3nc(-c4c(O)cccc4F)c(F)cc23)C(C)C1 (centres undefined) + CN(C)c1ccc(Nc2c3ccc(NC(=O)CCN4CCCC4)cc3nc3cc(NC(=O)CCN4CCCC4)ccc23)cc1
Second compound 0.0316 µM
  IC50: > 10000 nM
Second compound 0.1 µM
  IC50: > 10000 nM
Second compound 0.316 µM
  IC50: > 10000 nM
Second compound 1 µM
  IC50: > 10000 nM
Second compound 3.16 µM
  IC50: > 10000 nM
Second compound 10 µM
  IC50: 4880 nM
[1]
  viability, T/C: 99.1%
Second compound 0.0316 µM, first compound 0.1 µM
  viability, T/C: 100%
[2]
  viability, T/C: 106%
Second compound 0.0316 µM, first compound 1 µM
  viability, T/C: 90.7%
Second compound 0.0316 µM, first compound 3.16 µM
  viability, T/C: 104%
Second compound 0.0316 µM, first compound 10 µM
  viability, T/C: 90.5%
[3]
  viability, T/C: 99.7%
Second compound 0.1 µM, first compound 0.1 µM
  viability, T/C: 90.3%
[4]
  viability, T/C: 96.3%
Second compound 0.1 µM, first compound 1 µM
  viability, T/C: 88.5%
Second compound 0.1 µM, first compound 3.16 µM
  viability, T/C: 111%
Second compound 0.1 µM, first compound 10 µM
  viability, T/C: 104%
[5]
  viability, T/C: 91.5%
Second compound 0.316 µM, first compound 0.1 µM
  viability, T/C: 75.2%
[6]
  viability, T/C: 88.4%
Second compound 0.316 µM, first compound 1 µM
  viability, T/C: 83.3%
Second compound 0.316 µM, first compound 3.16 µM
  viability, T/C: 111%
Second compound 0.316 µM, first compound 10 µM
  viability, T/C: 83.3%
[7]
  viability, T/C: 90.1%
Second compound 1 µM, first compound 0.1 µM
  viability, T/C: 70.3%
[8]
  viability, T/C: 93.7%
Second compound 1 µM, first compound 1 µM
  viability, T/C: 108%
Second compound 1 µM, first compound 3.16 µM
  viability, T/C: 106%
Second compound 1 µM, first compound 10 µM
  viability, T/C: 95.1%
[9]
  viability, T/C: 86%
Second compound 3.16 µM, first compound 0.1 µM
  viability, T/C: 86.4%
[10]
  viability, T/C: 101%
Second compound 3.16 µM, first compound 1 µM
  viability, T/C: 99.5%
Second compound 3.16 µM, first compound 3.16 µM
  viability, T/C: 99.5%
Second compound 3.16 µM, first compound 10 µM
  viability, T/C: 77.8%
[11]
  viability, T/C: 62.6%
Second compound 10 µM, first compound 0.1 µM
  viability, T/C: 58.7%
[12]
  viability, T/C: 67.2%
Second compound 10 µM, first compound 1 µM
  viability, T/C: 71.8%
Second compound 10 µM, first compound 3.16 µM
  viability, T/C: 64.1%
Second compound 10 µM, first compound 10 µM
  viability, T/C: 26.3%

## CC[C@@]1(O)C(=O)OCc2c1cc1n(c2=O)Cc2cc3c(CN(C)C)c(O)ccc3nc2-1 + CN(C)c1ccc(Nc2c3ccc(NC(=O)CCN4CCCC4)cc3nc3cc(NC(=O)CCN4CCCC4)ccc23)cc1
Second compound 0.0316 µM
  IC50: 22.1 nM
Second compound 0.1 µM
  IC50: 24.5 nM
Second compound 0.316 µM
  IC50: 25 nM
Second compound 1 µM
  IC50: 22.8 nM
Second compound 3.16 µM
  IC50: 29.3 nM
Second compound 10 µM
  IC50: < 0.999 nM
Second compound 0.0316 µM, first compound 0.000999 µM
  viability, T/C: 98.2%
Second compound 0.0316 µM, first compound 0.00316 µM
  viability, T/C: 95.7%
Second compound 0.0316 µM, first compound 0.00999 µM
  viability, T/C: 93.1%
[1]
  viability, T/C: 30.5%
Second compound 0.0316 µM, first compound 0.0999 µM
  viability, T/C: 12.2%
[2]
  viability, T/C: 10.9%
Second compound 0.1 µM, first compound 0.000999 µM
  viability, T/C: 98.1%
Second compound 0.1 µM, first compound 0.00316 µM
  viability, T/C: 87.8%
Second compound 0.1 µM, first compound 0.00999 µM
  viability, T/C: 86%
[3]
  viability, T/C: 39.7%
Second compound 0.1 µM, first compound 0.0999 µM
  viability, T/C: 13.5%
[4]
  viability, T/C: 9.48%
Second compound 0.316 µM, first compound 0.000999 µM
  viability, T/C: 94.5%
Second compound 0.316 µM, first compound 0.00316 µM
  viability, T/C: 87.5%
Second compound 0.316 µM, first compound 0.00999 µM
  viability, T/C: 91.8%
[5]
  viability, T/C: 39.4%
Second compound 0.316 µM, first compound 0.0999 µM
  viability, T/C: 12.4%
[6]
  viability, T/C: 12.2%
Second compound 1 µM, first compound 0.000999 µM
  viability, T/C: 87.5%
Second compound 1 µM, first compound 0.00316 µM
  viability, T/C: 81.7%
Second compound 1 µM, first compound 0.00999 µM
  viability, T/C: 75.9%
[7]
  viability, T/C: 40.5%
Second compound 1 µM, first compound 0.0999 µM
  viability, T/C: 9.84%
[8]
  viability, T/C: 12.7%
Second compound 3.16 µM, first compound 0.000999 µM
  viability, T/C: 70.5%
Second compound 3.16 µM, first compound 0.00316 µM
  viability, T/C: 89.4%
Second compound 3.16 µM, first compound 0.00999 µM
  viability, T/C: 77.4%
[9]
  viability, T/C: 48.1%
Second compound 3.16 µM, first compound 0.0999 µM
  viability, T/C: 13.5%
[10]
  viability, T/C: 10.8%
Second compound 10 µM, first compound 0.000999 µM
  viability, T/C: 42.9%
Second compound 10 µM, first compound 0.00316 µM
  viability, T/C: 35%
Second compound 10 µM, first compound 0.00999 µM
  viability, T/C: 37%
[11]
  viability, T/C: 19.1%
Second compound 10 µM, first compound 0.0999 µM
  viability, T/C: 9.45%
[12]
  viability, T/C: 6.49%
